Assay [1] deals with Glyceraldehyde-3-phosphate dehydrogenase (Homo sapiens, UniProt P04406).
Assay [2] deals with Tyrosine-protein phosphatase non-receptor type 12 (Homo sapiens, UniProt Q05209). Description: SAR Selectivity Analysis of small molecule inhibitors of PEST using pCAP in a fluorescence assay. [Related pubchem assays (depositor defined):AID1779, AID1784, AID2135]. It counts as functional.
Assay [3] deals with T1, Tyrosine-protein phosphatase non-receptor type 22 (Homo sapiens, UniProt Q9Y2R2).
T1 sequence (Q9Y2R2 whole entry): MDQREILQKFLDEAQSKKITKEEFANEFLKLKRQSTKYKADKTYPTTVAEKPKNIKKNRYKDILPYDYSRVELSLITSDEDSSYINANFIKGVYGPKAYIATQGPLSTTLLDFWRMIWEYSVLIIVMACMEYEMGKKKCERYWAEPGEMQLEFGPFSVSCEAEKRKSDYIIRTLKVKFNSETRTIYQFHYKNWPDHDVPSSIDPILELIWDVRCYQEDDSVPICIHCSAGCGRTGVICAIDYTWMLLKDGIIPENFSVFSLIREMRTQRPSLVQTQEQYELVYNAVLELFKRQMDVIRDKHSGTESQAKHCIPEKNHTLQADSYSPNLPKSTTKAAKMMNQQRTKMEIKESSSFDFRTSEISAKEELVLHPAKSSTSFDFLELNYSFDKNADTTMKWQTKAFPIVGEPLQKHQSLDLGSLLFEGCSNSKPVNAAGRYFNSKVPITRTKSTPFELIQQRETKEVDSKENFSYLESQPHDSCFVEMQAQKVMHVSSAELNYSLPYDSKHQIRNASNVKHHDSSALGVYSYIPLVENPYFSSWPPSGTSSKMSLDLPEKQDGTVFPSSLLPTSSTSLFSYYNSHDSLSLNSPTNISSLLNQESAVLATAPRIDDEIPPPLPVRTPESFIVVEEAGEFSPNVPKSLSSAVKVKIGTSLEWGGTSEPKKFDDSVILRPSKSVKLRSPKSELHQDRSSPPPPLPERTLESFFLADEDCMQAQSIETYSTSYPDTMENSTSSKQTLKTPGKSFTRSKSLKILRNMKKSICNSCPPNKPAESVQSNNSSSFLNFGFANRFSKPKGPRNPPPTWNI
As to the kind of experiment: SAR LYP1 Fluorescent Assay using OMFP substrate for In Vitro dose response studies - Set 3. [Related pubchem assays (depositor defined):AID1779, AID1784, AID2140, AID2686]. It counts as functional.

Assay [4] addresses T1, Tyrosine-protein phosphatase non-receptor type 22. As to the kind of experiment: LYP (PTPN22) phosphatase inhibitor potency, SAR follow-up, biochemical, pCAP fluorogenic substrate, fluorescence, set 3 (AID 449727). It counts as functional.
Assay [5] addresses Protein Rev (Human immunodeficiency virus type 1 group M subtype B (isolate HXB2)(HIV-1), UniProt P04618). Description: inhibitors of Rev binding to RRE RNA, dose response, biochemical, fluorescence polarization, HIV-1 (AID 434976). More on the design: species or system Human immunodeficiency virus 1.
Assay [6] addresses Female germline-specific tumor suppressor gld-1 (Caenorhabditis elegans, UniProt Q17339). Description: inhibitors of GLD-1 binding to TGE RNA, dose response, biochemical, fluorescence polarization, C. elegans (AID 2802).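 Note: fluorescence polarization of labeled TGE RNA bound by purified gld-1 protein.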 Background: Polarisation of emitted light reports the rotation of a fluorescent probe.
In assay [7] the target is T2, Insulin-degrading enzyme (Homo sapiens, UniProt P14735).
T2 sequence (P14735 whole entry): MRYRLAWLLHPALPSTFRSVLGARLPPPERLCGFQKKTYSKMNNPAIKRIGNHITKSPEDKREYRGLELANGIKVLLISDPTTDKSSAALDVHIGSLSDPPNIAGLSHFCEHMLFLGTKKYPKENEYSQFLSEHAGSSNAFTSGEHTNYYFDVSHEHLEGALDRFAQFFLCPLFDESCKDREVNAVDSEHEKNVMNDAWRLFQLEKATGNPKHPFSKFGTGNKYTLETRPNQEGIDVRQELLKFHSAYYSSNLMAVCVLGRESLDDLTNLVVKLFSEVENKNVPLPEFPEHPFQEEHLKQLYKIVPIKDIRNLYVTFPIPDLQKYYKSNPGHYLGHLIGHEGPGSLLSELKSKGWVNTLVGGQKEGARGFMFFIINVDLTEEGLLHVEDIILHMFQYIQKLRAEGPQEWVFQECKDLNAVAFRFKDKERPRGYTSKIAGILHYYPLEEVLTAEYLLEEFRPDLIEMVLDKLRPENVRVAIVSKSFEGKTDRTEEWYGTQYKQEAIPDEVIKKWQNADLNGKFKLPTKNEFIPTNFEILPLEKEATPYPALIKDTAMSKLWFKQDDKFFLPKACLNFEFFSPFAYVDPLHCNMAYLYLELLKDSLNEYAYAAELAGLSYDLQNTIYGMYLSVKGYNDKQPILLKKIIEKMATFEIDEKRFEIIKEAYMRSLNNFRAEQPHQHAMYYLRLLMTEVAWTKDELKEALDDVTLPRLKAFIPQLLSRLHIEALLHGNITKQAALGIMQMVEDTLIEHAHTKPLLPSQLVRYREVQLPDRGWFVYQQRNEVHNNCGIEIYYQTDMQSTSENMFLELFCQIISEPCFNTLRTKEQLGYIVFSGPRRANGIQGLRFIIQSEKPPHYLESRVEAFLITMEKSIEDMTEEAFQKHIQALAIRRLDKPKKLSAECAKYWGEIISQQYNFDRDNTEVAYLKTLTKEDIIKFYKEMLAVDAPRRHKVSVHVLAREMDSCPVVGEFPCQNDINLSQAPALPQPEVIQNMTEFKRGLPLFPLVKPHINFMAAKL
As to the kind of experiment: activators of recombinant IDE enzyme, dose response, counter-screen for IDE activator project, biochemical, fluorescence polarization (AID 588681). In general terms: The purpose of a counterscreen is to sort out artefacts and off-target activity.

The target of assay [8] is T2, Insulin-degrading enzyme. Description: activators of endogenous IDE in HEK cells, dose response, cell-based, fluorescence polarization (AID 588439). The class given is functional.
In assay [9] the test system is HEK293. As to the kind of experiment: HEK cell cytotoxicity by LDH release, dose response, cytotoxicity control for IDE activator project, fluorescence, HEK cells (AID 588440).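 Note: cytotoxicity by LDH release measuring loss of membrane integrity.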 The conditions noted are these: Homo sapiens. It counts as functional, cell-based.
The subject of assay [10] is HEK293. Description: optical interference in Abeta FP readout, dose response, artefact control for IDE activator project, biochemical, fluorescence polarization (AID 588442). It counts as functional, cell-based. Conditions: Homo sapiens.
The nature of assay [11]: HEp-2 cell cytotoxicity, dose response, cytotoxicity control for RSV inhibitor project, HTS (AID 2410). The conditions noted are these: human respiratory syncytial virus. It counts as functional.
Assay [12] has as its target Trypsin (Sus scrofa, UniProt P00761). Description: porcine trypsin inhibitors, dose response, selectivity assay for Rce1 protease inhibitor project, biochemical, quenched peptide fluorescence, cherry-pick (AID 488789).
The nature of assay [13]: cells. The class given is functional, cell-based.
Assay [14] addresses T3, Trace amine-associated receptor 1 (Homo sapiens, UniProt Q96RJ0).
T3 sequence (Q96RJ0 whole entry): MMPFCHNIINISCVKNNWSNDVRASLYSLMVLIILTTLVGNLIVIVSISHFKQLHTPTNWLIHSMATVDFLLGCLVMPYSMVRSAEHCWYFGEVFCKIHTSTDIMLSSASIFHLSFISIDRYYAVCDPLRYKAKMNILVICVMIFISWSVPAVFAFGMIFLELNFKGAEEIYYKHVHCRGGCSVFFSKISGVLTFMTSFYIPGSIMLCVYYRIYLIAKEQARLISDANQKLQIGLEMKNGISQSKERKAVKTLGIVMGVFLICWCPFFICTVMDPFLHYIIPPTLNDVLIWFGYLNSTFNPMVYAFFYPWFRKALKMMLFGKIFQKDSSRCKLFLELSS
Description: Fluorescence-based cell-based high throughput dose response assay to identify agonists of the human trace amine associated receptor 1 (TAAR1). It counts as functional.

Assay [15] addresses T3, Trace amine-associated receptor 1. As to the kind of experiment: Counterscreen for agonists of the human trace amine associated receptor 1 (hTAAR1): Fluorescence-based cell-based high throughput dose response assay to identify hTAAR1 agonist that also desensitize TAAR1 receptor response. The class given is functional.
Assay [16] in a line: cells. It counts as functional, cell-based. This is another data set of the same source.
Assay [17] has as its target Melanin-concentrating hormone receptor 1 (Homo sapiens, UniProt Q99705). Description: Late-stage fluorescence-based counterscreen for antagonists of the G-protein coupled receptor 7 (GPR7): cell-based dose response assay to identify antagonists of the melanin-concentrating hormone receptor 1 (MCHR1). [Related pubchem assays (depositor defined):AID1861, AID1880, AID1952, AID2148, AID2251, AID2257, AID485339]. It counts as functional.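 Note: stimulated with 30 nM MCH peptide agonist.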

The target of assay [18] is T4, Neuropeptides B/W receptor type 1 (Homo sapiens, UniProt P48145).
T4 sequence (P48145 whole entry): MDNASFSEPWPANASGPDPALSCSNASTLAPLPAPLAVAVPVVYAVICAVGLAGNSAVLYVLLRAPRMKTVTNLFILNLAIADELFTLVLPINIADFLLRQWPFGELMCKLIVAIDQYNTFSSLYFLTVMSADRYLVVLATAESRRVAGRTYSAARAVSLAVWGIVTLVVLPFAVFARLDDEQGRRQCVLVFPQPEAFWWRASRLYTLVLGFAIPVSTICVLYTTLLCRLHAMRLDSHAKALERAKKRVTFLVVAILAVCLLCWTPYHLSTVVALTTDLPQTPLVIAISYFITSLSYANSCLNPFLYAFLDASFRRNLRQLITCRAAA
As to the kind of experiment: GPR7 antagonist potency, late-stage follow-up, cell-based, fluorescence, dose response (AID 463251). The class given is functional.

Activity calls are given as the source filed them.

Sequence of Protein Rev (P04618 whole entry): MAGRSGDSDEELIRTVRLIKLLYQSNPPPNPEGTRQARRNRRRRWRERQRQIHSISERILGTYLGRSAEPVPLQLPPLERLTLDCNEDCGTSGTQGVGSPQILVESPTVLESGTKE
Sequence of Melanin-concentrating hormone receptor 1 (Q99705 whole entry): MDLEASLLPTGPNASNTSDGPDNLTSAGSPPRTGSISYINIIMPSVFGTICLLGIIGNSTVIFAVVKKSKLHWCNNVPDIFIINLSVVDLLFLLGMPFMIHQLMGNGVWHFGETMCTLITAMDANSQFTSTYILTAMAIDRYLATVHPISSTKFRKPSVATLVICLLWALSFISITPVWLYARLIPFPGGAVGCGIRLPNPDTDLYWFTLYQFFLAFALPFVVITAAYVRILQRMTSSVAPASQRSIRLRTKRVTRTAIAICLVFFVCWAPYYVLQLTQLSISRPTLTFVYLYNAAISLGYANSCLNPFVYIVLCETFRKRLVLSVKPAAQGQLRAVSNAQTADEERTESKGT
Sequence of Female germline-specific tumor suppressor gld-1 (Q17339 whole entry): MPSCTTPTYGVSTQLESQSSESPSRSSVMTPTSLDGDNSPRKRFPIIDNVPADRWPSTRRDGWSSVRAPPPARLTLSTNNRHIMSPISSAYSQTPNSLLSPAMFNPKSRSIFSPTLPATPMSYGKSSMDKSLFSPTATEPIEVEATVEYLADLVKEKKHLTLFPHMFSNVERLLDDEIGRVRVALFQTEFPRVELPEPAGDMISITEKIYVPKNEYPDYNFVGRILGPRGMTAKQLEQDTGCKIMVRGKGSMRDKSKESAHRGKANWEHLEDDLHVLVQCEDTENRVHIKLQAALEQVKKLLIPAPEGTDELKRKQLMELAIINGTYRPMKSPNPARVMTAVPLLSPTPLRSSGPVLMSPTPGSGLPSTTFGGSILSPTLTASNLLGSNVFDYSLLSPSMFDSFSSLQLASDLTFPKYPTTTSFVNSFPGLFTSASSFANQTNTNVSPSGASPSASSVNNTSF
Sequence of Glyceraldehyde-3-phosphate dehydrogenase (P04406 whole entry): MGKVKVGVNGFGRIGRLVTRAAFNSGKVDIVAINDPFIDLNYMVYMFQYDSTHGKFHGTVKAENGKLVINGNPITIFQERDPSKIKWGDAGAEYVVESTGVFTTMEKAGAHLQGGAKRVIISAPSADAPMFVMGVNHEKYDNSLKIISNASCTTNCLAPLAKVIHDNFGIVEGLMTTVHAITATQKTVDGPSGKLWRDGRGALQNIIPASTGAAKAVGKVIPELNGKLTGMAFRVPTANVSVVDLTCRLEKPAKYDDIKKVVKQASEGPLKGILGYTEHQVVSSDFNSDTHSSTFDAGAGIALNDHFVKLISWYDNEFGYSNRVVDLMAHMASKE
Sequence of Trypsin (P00761 whole entry): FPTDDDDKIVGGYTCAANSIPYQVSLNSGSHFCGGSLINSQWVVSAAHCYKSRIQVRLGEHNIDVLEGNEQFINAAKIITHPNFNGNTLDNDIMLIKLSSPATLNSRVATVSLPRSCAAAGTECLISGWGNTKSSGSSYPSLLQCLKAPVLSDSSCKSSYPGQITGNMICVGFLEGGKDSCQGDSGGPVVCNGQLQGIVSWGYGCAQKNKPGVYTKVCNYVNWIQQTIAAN
Sequence of Tyrosine-protein phosphatase non-receptor type 12 (Q05209 whole entry): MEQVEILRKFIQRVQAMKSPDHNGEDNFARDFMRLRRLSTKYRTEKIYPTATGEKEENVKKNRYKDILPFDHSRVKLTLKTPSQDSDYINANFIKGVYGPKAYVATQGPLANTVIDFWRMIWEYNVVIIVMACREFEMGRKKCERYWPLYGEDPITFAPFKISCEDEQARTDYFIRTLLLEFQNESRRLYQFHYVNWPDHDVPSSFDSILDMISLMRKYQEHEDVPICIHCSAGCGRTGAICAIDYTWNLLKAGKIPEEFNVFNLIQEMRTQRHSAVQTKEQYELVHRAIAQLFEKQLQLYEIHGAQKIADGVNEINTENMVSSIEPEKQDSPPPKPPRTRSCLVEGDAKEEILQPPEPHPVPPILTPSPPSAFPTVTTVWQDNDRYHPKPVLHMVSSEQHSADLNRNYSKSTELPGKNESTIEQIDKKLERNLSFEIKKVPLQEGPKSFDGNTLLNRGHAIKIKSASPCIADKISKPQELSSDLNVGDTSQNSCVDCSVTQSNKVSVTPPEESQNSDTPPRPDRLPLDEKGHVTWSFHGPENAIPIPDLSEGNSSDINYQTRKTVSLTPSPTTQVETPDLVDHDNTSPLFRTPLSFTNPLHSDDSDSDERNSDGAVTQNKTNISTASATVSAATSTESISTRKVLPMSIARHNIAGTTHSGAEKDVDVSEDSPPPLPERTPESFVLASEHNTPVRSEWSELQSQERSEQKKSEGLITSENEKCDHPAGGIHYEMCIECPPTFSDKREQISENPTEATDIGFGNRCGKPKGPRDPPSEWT

By IC50 is commonly meant the midpoint of a concentration-inhibition curve. For the compound `COc1ccc(/C=C2\SC(=S)N(C(CC(=O)O)C(=O)O)C2=O)cc1` (stereo not drawn), the IC50 is > 100 µM (not active) in [1], > 100 µM (inactive) in [2], > 100 µM (inactive) in [3] and > 100 µM (inactive) in [4].
The EC50 is the concentration that produces a half-maximal response. In the case of `O=C(O)c1ccccc1N=Nc1ccc(O)cc1`, the IC50 in assay [5] is 22 µM (not active); in assay [6], 8.4 µM (active); in [9] it was > 89.2 µM (inactive). In addition, the EC50 in [7] is 26.9 µM (inactive); in assay [8], 22.3 µM (inactive); in assay [10] it was 50.3 µM (inactive).
Usually CC50 stands for the concentration that lowers cell viability or growth by half. In general, AC50 refers to the midpoint of the concentration-response curve, whichever way the signal moves. In the case of `O=C(NCC1CC1)c1ccc(Nc2nc3cc(Br)ccc3[nH]2)cc1`, the CC50 in [11] was 7.81 µM (active). Moreover, the AC50 in assay [12] was 9.83 µM (active). Besides, the IC50 in [13] is 14.5 µM (inactive); in assay [15] it was 2.09 µM (active). Also, the EC50 in assay [14] is 14.6 µM (inactive); in [16], > 29.9 µM (inactive).
Regarding `Cc1ccc(CN2CCCCC2C(=O)N2CCN(c3ccc([N+](=O)[O-])cc3)CC2)cc1` (stereo not drawn), the IC50 in assay [17] was 5.8 µM (active); in assay [18], 9 µM (active).

The values are drawn from ChEMBL document CHEMBL1201862, “PubChem BioAssay data set” (2004).
